“And” between values parts separate entries of the source, which are not always exact repeats. Identical values can stand only once.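 Step 1: Grow cells in 96-well plates. Step 2: Expose to compound for 48 hours at 5 concentrations. Step 3: Interpolate endpoints linearly; if unreached, use highest concentration. GI50: concentration for 50% inhibition of growth. TGI: total growth inhibition.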
Key:
Assay in all cases: NCI-60 cell line screen, 48 h
786-0 renal = test system: 786-0 renal
CCRF-CEM leukemia = test system: CCRF-CEM leukemia
HOP-62 NSCLC = test system: HOP-62 NSCLC
HOP-92 NSCLC = test system: HOP-92 NSCLC
LOX IMVI melanoma = test system: LOX IMVI melanoma
MALME-3M melanoma = test system: MALME-3M melanoma
NCI/ADR-RES ovarian = test system: NCI/ADR-RES ovarian
SF-268 CNS = test system: SF-268 CNS
OVCAR-3 ovarian = test system: OVCAR-3 ovarian
A498 renal = test system: A498 renal

| Compound | TGI (786-0 renal) [µM] | TGI (CCRF-CEM leukemia) [µM] | TGI (HOP-62 NSCLC) [µM] | TGI (HOP-92 NSCLC) [µM] | TGI (LOX IMVI melanoma) [µM] | TGI (MALME-3M melanoma) [µM] | TGI (NCI/ADR-RES ovarian) [µM] | TGI (SF-268 CNS) [µM] | TGI (OVCAR-3 ovarian) [µM] | TGI (A498 renal) [µM] | GI50 (A498 renal) [µM] | GI50 (CCRF-CEM leukemia) [µM] | GI50 (HOP-92 NSCLC) | GI50 (MALME-3M melanoma) [µM] | GI50 (NCI/ADR-RES ovarian) [µM] | GI50 (OVCAR-3 ovarian) [µM] | GI50 (SF-268 CNS) [µM] |
| --- | --- | --- | --- | --- | --- | --- | --- | --- | --- | --- | --- | --- | --- | --- | --- | --- | --- |
| O=c1oc2ccc([N+](=O)[O-])cc2cc1-c1csc(-c2ccccc2)n1 | > 100 | > 100 | > 100 | > 100 | > 100 | > 100 | > 100 | > 100 |  |  |  |  |  |  |  |  |  |
| O=c1[nH]nc(-c2ccccc2)c2[nH]c3c(c12)CCCc1ccccc1-3 | 28 | 47.2 | 46.4 | 54.8 | 33.7 | 30.9 | 32.5 | > 100 | 66.3 |  |  |  |  |  |  |  |  |
| FC1(F)SC2CCCCCCCCCCC2C1(F)F (centres undefined) | > 100 | > 100 | > 100 | 51.6 | 31.6 | 59.6 | > 100 | > 100 | 39.1 |  |  |  |  |  |  |  |  |
| CC1=NN(c2cccc(S(=O)(=O)O)c2)C2(C1)SCC(=O)N2c1nc2ccccc2s1 (centres undefined) | > 100 |  | > 100 | > 100 | > 100 | > 100 | > 100 | > 100 | > 100 | > 100 |  |  |  |  |  |  |  |
| CCOC(=O)C(/C=N/C(N)=S)=C(/O)c1ccccc1 | > 100 |  | > 100 | > 100 | > 100 |  | > 100 | > 100 | > 100 | > 100 |  |  |  |  |  |  |  |
| CC1(C)CC(=O)C(/C=N/c2nc(-c3cccc([N+](=O)[O-])c3)cs2)=C(O)C1 | 29.9 | 5.69 | 57.9 | 39.6 | 27.2 |  | 39.2 | 44.1 | > 100 | 30.5 |  |  |  |  |  |  |  |
| Cc1csc(CP(=O)(OC(C)C)OC(C)C)n1 | > 100 |  | > 100 | > 100 | > 100 | > 100 | > 100 | > 100 | > 100 | > 100 |  |  |  |  |  |  |  |
| COc1cc(/C=C2\CCCC3=C2N=C2SC=NN2C3c2cc(OC)c(OC)c(OC)c2)cc(OC)c1OC (centres undefined) |  | > 100 |  | > 100 |  | 7.09 | > 100 | > 100 | 9.32 | 3.89 | 1.48 | 3.17 | 2.98 µM | 2.99 | 3.45 | 3.02 | 3.48 |
| CN1CCN2CCN(C)CCN(CC1)CC2 | > 100 | > 100 | > 100 | > 100 | > 100 |  | > 100 | > 100 | > 100 | > 100 |  |  |  |  |  |  |  |
| COC(=O)c1cc(OCc2cc(OCc3ccc(Br)cc3)cc(OCc3ccc(Br)cc3)c2)cc(OCc2cc(OCc3ccc(Br)cc3)cc(OCc3ccc(Br)cc3)c2)c1 | > 100 |  | > 100 | > 100 |  | > 100 | > 100 | > 100 | > 100 | > 100 |  |  |  |  |  |  |  |
| Cc1nc2c(ccc3[nH]c4ccccc4c32)s1 | > 100 | > 100 | 40 | 45.4 |  | > 100 | > 100 | > 100 | 64.1 | 34.9 |  |  |  |  |  |  |  |
| Nc1[nH]nc2c1Cc1c(n(Cc3ccc(Cl)cc3)c3ccccc13)C(=O)N2 |  | 26.6 | 31.1 | 31.5 | 26.4 | 52.3 | 44.6 | 47.8 | 30.5 | 29.7 |  |  |  |  |  |  |  |
| Cc1ccc(S(=O)(=O)N/N=C2/C3CC4CCC2C4C3)cc1 (centres undefined) | > 100 |  | > 100 | > 100 | > 100 | > 100 | > 100 | > 100 | > 100 | > 100 |  |  |  |  |  |  |  |
| Cc1c(OCc2cccc3ccccc23)ccc2c(=O)cc(S)oc12 | > 100 | 54.1 | > 100 | 67.1 | 47.5 |  | > 100 | > 100 | 53.6 | > 100 |  |  |  |  |  |  |  |
| C=C(C)[C@H]1C=C[C@@H](OC(C)=O)[C@@]2(COC(C)=O)[C@H](OC(=O)CCC)[C@H]3[C@@H](OC(C)=O)[C@@H](C)C[C@]3(O)C(=O)[C@@](C)(OC(C)=O)[C@H]12 | > 100 | > 100 |  | 69.8 | > 100 | > 100 | > 100 | > 100 |  | > 100 |  |  |  |  |  |  |  |
| Nc1nc(=O)n(C2CC(O)C(CO)O2)c2nc(-c3ccc(-c4ccccc4)cc3)cnc12 (centres undefined) | > 100 | > 100 | 82.9 | > 100 | > 100 | > 100 | > 100 | 79 |  | > 100 |  |  |  |  |  |  |  |
| CCOC1=NC(C(F)(F)F)(C(F)(F)F)N=C(/N=C(/N)N(C)C(C(C)C)P(=O)(OC(C)C)OC(C)C)O1 (centres undefined) | > 100 | 83.5 | > 100 |  | > 100 | > 100 | > 100 | > 100 | > 100 | > 100 |  |  |  |  |  |  |  |
| CSc1nc(NC2OC(CO)C(O)C(O)C2O)c(N)c(=O)[nH]1 (centres undefined) |  | > 100 | > 100 | > 100 | > 100 | > 100 | > 100 | > 100 | > 100 | > 100 |  |  |  |  |  |  |  |
| [B]C(=O)NC(CC(C)C)C(=O)NC1c2ccsc2C(=O)C1O (centres undefined) (tested in a mixture with another compound) | > 100 | > 100 | > 100 | > 100 | > 100 | > 100 | > 100 | > 100 |  | > 100 |  |  | 44.6 µM and > 100 µM |  |  |  |  |
| C[C@H](N)C(=O)Nc1ccc(-c2nc3ccccc3s2)cc1Cl | 25.7 | 29.3 | 26 | > 100 | > 100 | 41.4 | > 100 | 43.7 | 19.2 |  |  |  |  |  |  |  |  |
| O=C(CCCN1CCC(Nc2ccc(F)cc2)(c2nnnn2C2CCCCC2)CC1)c1ccc(F)cc1 | 37.1 | > 100 | 33.6 |  | > 100 | > 100 | 46.9 | 33.9 | 31.8 | 12.5 |  |  |  |  |  |  |  |
| O=C(O)Cc1ccc(-n2nnc3c(=O)[nH][nH]c(=O)c32)cc1 | > 100 | > 100 | > 100 | > 100 | > 100 | > 100 | > 100 |  | > 100 |  |  |  |  |  |  |  |  |

Source: PubChem BioAssay (NCI)
